Columns and labels:
[1] = test system: mouse models of AD and PD; details: oral administration, Non-Patent Literature 18, 19; cited from earlier work
[2] = test system: BDNF and nerve growth factor (NGF); details: oral administration; rat model of cerebral ischemia/reperfusion; Non-Patent Literature 20; cited from earlier work
Tau784 mice = experiment: Morris water maze test in Tau784 mice; type: in vivo, mouse; details: Tau784 mice aged 8-10 months; orally, one month; mixture of catechin 0.087 μg, chlorogenic acid 0.036 μg, rutin 0.123 μg, or catechin alone 0.087 μg; FIG. 24
Source text: The Tau784 mice are FTD models that express both three-repeat and four-repeat human tau at an adult age (with four-repeat human tau being dominantly expressed) due to the presence of a tau intron mutation (Non-Patent Literature 25: Umeda et al., Am. J. Pathol., (2013), 183[1]:211-25; and Non-Patent Literature 26: Umeda et al., Ann. Clin. Transl. Neurol., (2015), 2[3]:241-55).
To investigate the effect of mãmaki leaf hot water extract, the extract powder was suspended in water at concentrations of 3.33, 0.33, and 0.10 mg/mL by sonication. 300 μL of each suspension (containing 1,000, 100, and 30 μg of powder) was orally administered to male and female Tau784 mice five days a week (Monday to Friday) for one month. As a control, the same amount of water was administered to age-matched Tg and non-Tg littermates. For APP23, Huα-Syn (A53T), and C9-500 mice, a 0.33 mg/mL suspension (100 μg of powder/[…]) was orally administered to male and female mice for one month. […]
The spatial reference memory of each mouse was evaluated using the Morris water maze test (Non-Patent Literature 34: Kelley Bromley-Brits et al., J. Vis. Exp., (2011), 53e2920). […] Each mouse was placed in the pool and allowed to swim for 60 seconds, and the time taken to reach the platform was measured (referred to as escape latency). […]

Molecule	memory and motor function [1]	expression of BDNF and nerve growth factor (NGF) [2]	memory (Morris water maze test) (Tau784 mice)
O=C(/C=C/c1ccc(O)c(O)c1)O[C@@H]1C[C@](O)(C(=O)O)C[C@@H](O)[C@H]1O [Chlorogenic acid, 5-O-caffeoylquinic acid]	improves their memory and motor function	promote the expression of BDNF and nerve growth factor (NGF)	–
catechin	–	–	showed a weaker effect than the polyphenol mixture

Source: US20260273004A1, “AGENT AND METHOD FOR MAINTAINING OR IMPROVING CEREBRAL FUNCTION USING CRUDE DRUG” (CEREBRO PHARMA INC., priority 2023, published 2026)
